Laboratory results as given in patent US9802960B2 (MILLENNIUM PHARMACEUTICALS, INC., priority 2014, dated 2017).

What follows are compounds tested against Human VPS34 (Homo sapiens (Human), UniProt Q8NEB9) (assay: Human VPS34 enzyme assay (Adapta TR-FRET)). Details: compound concentration 1.11 μM.
Assay type: biochemical

Sequence of Human VPS34 (Q8NEB9 whole entry): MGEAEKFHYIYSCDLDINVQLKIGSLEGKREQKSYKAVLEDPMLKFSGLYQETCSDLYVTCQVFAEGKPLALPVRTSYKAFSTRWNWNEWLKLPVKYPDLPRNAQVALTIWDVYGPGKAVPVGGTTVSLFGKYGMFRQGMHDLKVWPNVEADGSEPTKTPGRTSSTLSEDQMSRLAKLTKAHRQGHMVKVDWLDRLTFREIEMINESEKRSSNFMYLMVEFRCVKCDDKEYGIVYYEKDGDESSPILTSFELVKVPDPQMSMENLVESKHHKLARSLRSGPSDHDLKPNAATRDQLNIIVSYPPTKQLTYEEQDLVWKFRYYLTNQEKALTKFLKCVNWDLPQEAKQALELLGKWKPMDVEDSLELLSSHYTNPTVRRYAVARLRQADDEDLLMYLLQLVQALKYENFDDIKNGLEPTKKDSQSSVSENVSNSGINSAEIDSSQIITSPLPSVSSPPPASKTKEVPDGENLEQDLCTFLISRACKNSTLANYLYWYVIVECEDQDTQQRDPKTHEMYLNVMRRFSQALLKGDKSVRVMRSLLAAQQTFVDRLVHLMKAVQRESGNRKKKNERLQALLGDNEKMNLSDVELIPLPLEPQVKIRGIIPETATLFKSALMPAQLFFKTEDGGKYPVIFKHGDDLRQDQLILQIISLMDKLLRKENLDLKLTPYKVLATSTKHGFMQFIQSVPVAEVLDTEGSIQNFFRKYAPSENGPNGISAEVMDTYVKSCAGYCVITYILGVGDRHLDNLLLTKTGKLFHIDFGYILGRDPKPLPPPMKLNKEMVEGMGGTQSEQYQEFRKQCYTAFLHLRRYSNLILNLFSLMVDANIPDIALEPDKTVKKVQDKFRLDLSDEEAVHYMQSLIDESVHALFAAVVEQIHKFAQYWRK

Cc1nc(Nc2cc(-c3cnc(Cl)c(NS(=O)(=O)c4ccc(F)cc4F)c3C)ccn2)ccc1C#N [Compound I-238, N-{6-chloro-2′-[(5-cyano-6-methylpyridin-2-yl)amino]-4-methyl-3,4′-bipyridin-5-yl}-2,4-difluorobenzenesulfonamide] was tested, and the “Percent Inhibition” value was 93%.

Same assay, conditions: compound concentration 1.11 μM; read-out: Percent Inhibition

First: CC(=O)Nc1cc(-c2cnc(Cl)c(C(=O)N(C)C)c2)ccn1 [Compound I-213, 2′-acetamido-6-chloro-N,N-dimethyl-3,4′-bipyridine-5-carboxamide]
Second: COc1ncc(-c2ccnc(NC(C)=O)c2)cc1NS(=O)(=O)N(C)C [Compound I-220, N-{5-[(dimethylsulfamoyl)amino]-6-methoxy-3,4′-bipyridin-2′-yl}acetamide]
The inhibition at 1.11 µM of the first is higher: greater than 99% for the first, 99% for the second.

CC(=O)Nc1cc(-c2cnc(C)c(NS(=O)(=O)N3CCCCC3)c2)ccn1 [Compound I-214, N-{6-methyl-5-[(piperidin-1-ylsulfonyl)amino]-3,4′-bipyridin-2′-yl}acetamide] and Cc1ncc(-c2ccnc(Nc3ccncn3)c2)cc1NS(=O)(=O)N(C)C [Compound I-217, N,N-dimethyl-Y-[6-methyl-2′-(pyrimidin-4-ylamino)-3,4′-bipyridin-5-yl]sulfuric diamide] cannot be ordered by inhibition at 1.11 µM: greater than 99% for the first, greater than 99% for the second.

Cc1nccc(Nc2cc(-c3cnc(Cl)c(S(=O)(=O)NC4CCC4)c3)ccn2)n1 [Compound I-215, 6-chloro-N-cyclobutyl-2′-((2-methylpyrimidin-4-yl)amino)-[3,4′-bipyridine]-5-sulfonamide] and COc1ncc(-c2ccnc(Nc3ccnc(C)n3)c2)cc1S(=O)(=O)NC1CCC1 [Compound I-224, N-cyclobutyl-6-methoxy-2′-[(2-methylpyrimidin-4-yl)amino]-3,4′-bipyridine-5-sulfonamide] are the same in inhibition at 1.11 µM: 99% for the first, 99% for the second.

Going from N=C(N)NC(=O)c1cc(-c2ccnc(Nc3ccncn3)c2)cnc1N [Compound I-216, 6-Amino-N-carbamimidoyl-2′-(pyrimidin-4-ylamino)-3,4′-bipyridine-5-carboxamide] to CNc1ncc(-c2ccnc(Nc3ccncn3)c2)cc1C(=O)N(C)C12CC(C1)C2 [Compound I-222, N-(bicyclo[1.1.1]pent-1-yl)-N-methyl-6-(methylamino)-2′-(pyrimidin-4-ylamino)-3,4′-bipyridine-5-carboxamide], the inhibition at 1.11 µM falls from 97% to 93%.

First: CC(=O)Nc1cc(-c2cnc(C)c(NS(=O)(=O)c3ccc(F)cc3F)c2)cc[n+]1[O-] [Compound I-219, N-[4-(5-{[(2,4-difluorophenyl)sulfonyl]amino}-6-methylpyridin-3-yl)-1-oxidopyridin-2-yl]acetamide]
Second: Cc1ncc(-c2ccnc(Nc3ccncn3)c2)cc1NS(=O)(=O)c1ccc(F)cc1F [Compound I-239]
The inhibition at 1.11 µM of the first is lower: 92% for the first, greater than 99% for the second.

Compared with Cc1nccc(Nc2cc(-c3cnc(C)c(C(=O)N4CC(F)(F)C4)c3)ccn2)n1 [Compound I-221, (3,3-difluoroazetidin-1-yl){6-methyl-2′-[(2-methylpyrimidin-4-yl)amino]-3,4′-bipyridin-5-yl}methanone], Cc1nccc(Nc2cc(-c3cnc(C)c(C(=S)N4CCC4)c3)ccn2)n1 [Compound I-223, Azetidin-1-yl{6-methyl-2′-[(2-methylpyrimidin-4-yl)amino]-3,4′-bipyridin-5-yl}methanethione] is lower in inhibition at 1.11 µM: 97% for the first, 95% for the second.

COc1nccc(Nc2cc(-c3cnc(Cl)c(NS(=O)(=O)c4ccc(F)cc4F)c3C)ccn2)n1 [Compound I-225, N-{6-chloro-2′-[(2-methoxypyrimidin-4-yl)amino]-4-methyl-3,4′-bipyridin-5-yl}-2,4-difluorobenzene sulfonamide] and CC(=O)Nc1cc(-c2cnc(Cl)c(NS(=O)(=O)c3cc(F)ccc3F)c2C)ccn1 [Compound I-227, N-(6-chloro-5-{[(2,5-difluorophenyl)sulfonyl]amino}-4-methyl-3,4′-bipyridin-2′-yl)acetamide] cannot be ordered by inhibition at 1.11 µM: greater than 99% for the first, greater than 99% for the second.

Going from Cc1nccc(Nc2cc(-c3cnc(Cl)c(N)c3C)ccn2)n1 [Compound I-226, 6-chloro-4-methyl-N-2′-(2-methylpyrimidin-4-yl)-3,4′-bipyridine-2′,5-diamine] to Cc1nccc(Nc2cc(-c3cnc(Cl)c(C(=O)N4CCC4)c3)ccn2)n1 [Compound I-232, azetidin-1-yl{6-chloro-2′-[(2-methylpyrimidin-4-yl)amino]-3,4′-bipyridin-5-yl}methanone], the inhibition at 1.11 µM falls from 94% to 81%.

First: Cc1ncc(-c2ccnc(Nc3ccc(C#N)cn3)c2)cc1NS(=O)(=O)c1ccc(F)cc1F [Compound I-228, N-{2′-[(5-cyanopyridin-2-yl)amino]-6-methyl-3,4′-bipyridin-5-yl}-2,4-difluorobenzene sulfonamide]
Second: Cc1ncc(-c2ccnc(Nc3ccnc(C(F)(F)F)n3)c2)cc1NS(=O)(=O)c1ccc(F)cc1F [Compound I-237, 2,4-difluoro-N-(6-methyl-2′-{[2-(trifluoromethyl)pyrimidin-4-yl]amino}-3,4′-bipyridin-5-yl)benzenesulfonamide]
The inhibition at 1.11 µM of the first is higher: greater than 99% for the first, 91% for the second.

Compared with Cc1nc(Nc2cc(-c3cnc(C)c(NS(=O)(=O)N(C)C)c3)ccn2)ccc1C#N [Compound I-229, N-{2′-[(5-cyano-6-methylpyridin-2-yl)amino]-6-methyl-3,4′-bipyridin-5-yl}-N,N-dimethylsulfuric diamide], Cc1ccc2ccc(Nc3cc(-c4cnc(C)c(NS(=O)(=O)c5ccc(F)cc5F)c4)ccn3)nc2n1 [Compound I-235, 2,4-difluoro-N-{6-methyl-2′-[(7-methyl-1,8-naphthyridin-2-yl)amino]-3,4′-bipyridin-5-yl}benzenesulfonamide] is lower in inhibition at 1.11 µM: greater than 99% for the first, 92% for the second.

First: COc1nccc(Nc2cc(-c3cnc(N)c(C(=O)N(C)C45CC(C4)C5)c3)ccn2)n1 [Compound I-230, 6-amino-N-(bicyclo[1.1.1]pent-1-yl)-2′-((2-methoxypyrimidin-4-yl)amino)-N-methyl-[3,4′-bipyridine]-5-carboxamide]
Second: Cc1nccc(Nc2cc(-c3cncc(C(=O)N(C)C45CC(C4)C5)c3)ccn2)n1 [Compound I-234, N-(bicyclo[1.1.1]pent-1-yl)-N-methyl-2′-[(2-methylpyrimidin-4-yl)amino]-3,4′-bipyridine-5-carboxamide]
The inhibition at 1.11 µM of the first is higher: 97% for the first, 90% for the second.

First: Nc1cncc(-c2ccnc(N)c2)c1 [Compound I-231, 3,4′-bipyridine-2′,5-diamine]
Second: Cc1ncc(-c2ccnc(Nc3nc4ccccc4o3)c2)cc1NS(=O)(=O)c1ccc(F)cc1F [Compound I-233, N-[2'-(1,3-benzoxazol-2-ylamino)-6-methyl-3,4′-bipyridin-5-yl]-2,4-difluorobenzene sulfonamide]
The inhibition at 1.11 µM of the first is lower: 26% for the first, 96% for the second.

Compared with CC(=O)Nc1cc(-c2cnc(Cl)c(NS(=O)(=O)N(C)C)c2C)ccn1 [Compound I-236, N-{6-chloro-5-[(dimethylsulfamoyl)amino]-4-methyl-3,4′-bipyridin-2′-yl}acetamide], CC(=O)Nc1cc(-c2cnc(Cl)c(NS(=O)(=O)c3ccccc3Cl)c2C)ccn1 [Compound I-240, N-(6-chloro-5-{[(2-chlorophenyl)sulfonyl]amino}-4-methyl-3,4′-bipyridin-2′-yl)acetamide] is higher in inhibition at 1.11 µM: 98% for the first, greater than 99% for the second.
